Where two headings read alike, the source gives them in different places.
How the values were obtained:
lung epithelial cells [1] = assay: NE-induced viability and colony formation of lung epithelial cells; assay type: cell-based, human; conditions: NE-treated lung epithelial cells
Protocol: Cells (2-3×10^3 cells) were seeded into 96-well plates, treated with a test drug diluted with a medium, and then incubated for 3 days. After incubation, the cells were treated with an MTT solution to have a final concentration of 200-500 μg/ml and incubated for 2 to 4 hours. After discarding the medium, produced formazan was dissolved in DMSO, and then the absorbance at 570 nm was measured. Alternatively, cells were seeded into 12- or 24-well plates, collected after a predetermined time after treatment with a test drug, and then counted using a hemocytometer. […] After 2 to 3 weeks, Colony formation was observed and the colonies were counted after stained staining with crystal violet. Before the experiment, low-melting agar (final concentration of agar: 1%) was diluted with a medium, and then 1 ml of the resulting solution was added and solidified in each 24-well plate, resulting in bottom agar. 2,000 to 5,000 cells were mixed with the low melting agar (final concentration of agar: 0.35-0.4%), 500 μl of the resulting mixture was added onto each bottom agar. After solidification of the agar, the cells were treated with NNK or a test drug, which was diluted with a medium. After 2 to 4 weeks after treatment, colonies were stained with an MTT solution, observed, and then counted.

lung epithelial cells [2] = assay: Transformation of lung epithelial cells by stress hormones; assay type: cell-based, human; conditions: treatment with the stress hormone alone
Protocol: (§1) Cells (2-3×10^3 cells) were seeded into 96-well plates, treated with a test drug diluted with a medium, and then incubated for 3 days. After incubation, the cells were treated with an MTT solution to have a final concentration of 200-500 μg/ml and incubated for 2 to 4 hours. After discarding the medium, produced formazan was dissolved in DMSO, and then the absorbance at 570 nm was measured. Alternatively, cells were seeded into 12- or 24-well plates, collected after a predetermined time after treatment with a test drug, and then counted using a hemocytometer. 100 to 300 cells were seeded into 6- or 12-well plates and then treated with NNK or NNK and a test drug for 2 to 3 weeks. After 2 to 3 weeks, Colony formation was observed and the colonies were counted after stained staining with crystal violet. Before the experiment, low-melting agar (final concentration of agar: 1%) was diluted with a medium, and then 1 ml of the resulting solution was added and solidified in each 24-well plate, resulting in bottom agar. 2,000 to 5,000 cells were mixed with the low melting agar (final concentration of agar: 0.35-0.4%), 500 μl of the resulting mixture was added onto each bottom agar. After solidification of the agar, the cells were treated with NNK or a test drug, which was diluted with a medium. After 2 to 4 weeks after treatment, colonies were stained with an MTT solution, observed, and then counted. Lung epithelial cells at 90 to 95% confluency were treated with a carcinogen diluted with a growth factor-free medium, or a carcinogen and a test drug. After 2 to 3 weeks, foci formation was observed.

IGF-1R [3] = assay: NNK-induced IGF-1R activation in lung epithelial / lung cancer cells (Western blot); assay type: cell-based, human; conditions: for NNK-mediated IGF-1R activation: NNK-treated BEAS-2B cells
Protocol: (§2) Cells were washed twice with ice-cold PBS, and then lysed with a modified RIPA buffer [50 mM Tris-HCl (pH 7.4), 150 mM NaCl, 1 mM EDTA, 0.25% sodium deoxycholate, 1% Triton X-100, a protease inhibitor cocktail, 100 mM NaF, 1 mM Na3VO4]. Lysates were centrifuged at 13,000 rpm for 15 to 20 minutes to harvest supernatants, and then the collected proteins were quantified using the BCA method. Equivalent amounts of the proteins were subjected to electrophoresis using 8-15% SDS-PAGE, and then transferred to a PVDF membrane. The membrane was washed with TBST (0.01% Tween-20-containing Tris-buffered saline), and blocked in a blocking buffer (diluted in TBST to contain 5% skim milk) at room temperature for 1 hour. The membrane was incubated with primary antibodies diluted in 3% BSA-containing TBST at 4° C. for 12 hours, and washed with TBST for over 1 hour. The membrane was incubated with secondary antibodies diluted in TBST containing 3% skim milk at room temperature for 1 to 2 hours, and washed with TBST for over 1 hour. The membrane was reacted in an ECL solution, and band visualization was carried out by exposure to an X-ray film.

IGF2 [4] = assay: IGF2 secretion in GFP-IGF2-overexpressing BEAS-2B cells; assay type: cell-based, human
IGF-1R [5] = assay: NNK-induced IGF-1R phosphorylation in IGF-1R or IR-overexpressing fibroblasts (immunoprecipitation); assay type: cell-based; conditions: NNK 10 μM, time-dependent
Protocol: Proteins isolated from cells were incubated with an antibody and protein A/G agarose to isolate a protein binding to the corresponding antibody. The presence of other proteins capable of interacting with a specific protein was determined by Western blot analysis.
as §2

IGF-1R [6] = assay: IGF-1R activation in lung tissue of NNK-treated mice; assay type: in vivo, mouse; conditions: A/J mice, NNK 3 μmol
Protocol: as §2

intracellular Ca^2+ = assay: Intracellular Ca2+ production (Fluo-4 AM); assay type: cell-based, human; conditions: NNK treatment
Protocol: Lung epithelial cells were placed on coverslips, treated with an antihypertensive drug or a Ca^2+ chelator, treated with Ca^2+ indicator Fluo-4 AM at 37° C. for 15 minutes, and then treated with NE for 5 minutes. The cells were washed with PBS three times. The slides were mounted with a mounting medium, and images were captured using a Nuance multispectral imaging system (PerkinElmer).
For real-time monitoring of a Ca^2+ change in cells by NNK, the cells were seeded into 96-well cell carrier microplates (PerkinElmer), treated with an antihypertensive drug, treated with Fluo-4 AM at 37° C. for 15 minutes, and then treated with NNK. Fluorescence changes were monitored using an Operetta high content screening system, and result analysis was performed using Harmony software (PerkinElmer).

angiotensinogen (AGT) = assay: AGT expression or secretion in lung epithelial cells; assay type: cell-based, human
Protocol: as §2

IGF2 [7] = assay: IGF1 and IGF2 generation in lung epithelial cells (RT-PCR); assay type: cell-based, human; conditions: NNK 1 or 10 μM
Protocol: RNA was isolated from lung epithelial cells by the following method. By adding TRIzol Reagent, the cells were homogenized, treated with chloroform and then centrifuged at 13,000 rpm for 20 minutes. After collection of supernatants, equivalent amounts of isopropanol were added, and then the resulting mixture was centrifuged at 13,000 rpm for 20 minutes to precipitate RNA. The precipitated RNA was washed with 75% ethanol, dried and then dissolved in nuclease-free water. The absorbance at 260 nm was measured, and then the RNA was quantified. RNA having a ratio of A260/A280 nm of 1.8 to 2.0 was used in the experiments. All of the experiments were carried out under RNase-free conditions.
cDNA was synthesized using the PrimeScript™ 1st strand cDNA Synthesis Kit by reacting 2 μg of total RNA with Oligo dT primer (50 μM), a dNTP mixture, and RNase-free dH2O at 65° C. for 5 minutes, reacting a Template RNA primer mixture with 5× PrimeScript Buffer, an RNase inhibitor, PrimeScript RTase, and RNase-free dH2O at 42° C. for 1 hour, and performing heating at 95° C. for 5 minutes to stop the reaction.
After a reaction solution was adjusted to a final volume of 20 μl by adding 2 μl cDNA, 4 μM primer sets, 10 μl EconoTaq® polymerase, and distilled water, polymerase chain reaction (PCR) was carried out using a PCR instrument. […]

IGF-1R [8] = assay: NE-mediated IGF-1R activation in lung epithelial cells; assay type: cell-based, human; conditions: NE-treated lung epithelial cells
Protocol: as §2

IGF-1R [9] = assay: IGF-1R phosphorylation on change of intracellular Ca2+ (Western blot); assay type: cell-based, human; conditions: HBE/p53i cells
Protocol: as §2

IGF2 [10] = assay: NE-mediated IGF2 secretion in lung epithelial cells; assay type: cell-based, human; conditions: NE-treated lung epithelial cells
Protocol: ELISA for IGF1, IGF2 and NE were performed using commercially available ELISA kits (R&D Systems, DSL or Abnova) according to the manufacturer's instruction.

lung epithelial cells [11] = assay: NNK-induced viability, colony formation and foci formation of lung epithelial cells; assay type: cell-based, human
Protocol: as §1

A/J mice = assay: NNK lung carcinogenesis animal model; assay type: in vivo, mouse; conditions: NNK 3 μmol oral twice a week, test drug oral 6 times a week, 20 weeks
Protocol: NNK (3 μmol) was orally administered to A/J mice twice a week, and a test drug was orally administered thereto 6 times a week for a total of 20 weeks. Afterward, the mice were sacrificed, lungs were extracted from the mice, and the produced tumors were counted. Lung paraffin blocks were prepared, four or more tissue sections were prepared at regular intervals, and then stained by H&E staining as described below. Numbers and sizes of the tumors were measured to calculate volumes of the tumors. Paraffin blocks were sliced to have a thickness of 4 μm, placed onto silane-coated slides, and then dried. The dried slide glasses were deparaffinized overnight in a 65° C. dry oven. Afterward, the slide glasses were dipped in xylene for 5 minutes twice. After deparaffinization, the slide glasses were sequentially hydrated with 100%, 95%, 70%, and 50% ethanol, stained with a Harris hematoxylin solution for 1.5 minutes, dipped in a 1% HCl alcohol solution and ammonia, and then counterstained with an eosin solution for 30 seconds. Afterward, the resulting tissue sections were sequentially dehydrated using 95% and 100% ethanol, transparentized with xylene, and then mounted. Images were captured using a microscope.

Compound: C[C@]1(O)C[C@@H](c2nc(-c3ccc4ccc(-c5ccccc5)nc4c3)c3c(N)nccn32)C1 [linsitinib]
- NE-induced increase in colony formation of lung epithelial cells (lung epithelial cells [1]): significantly suppressed
- NE-induced increase in viability of lung epithelial cells (lung epithelial cells [1]): significantly suppressed

Compound: CNC[C@H](O)c1ccc(O)c(O)c1 [epinephrine]
- transformation of lung epithelial cells (viability, colony formation, foci formation) (lung epithelial cells [2]): induced

Compound: CN(CCCC(=O)c1cccnc1)N=O [NNK, 4-(methylnitrosamino)-1-(3-pyridyl)-1-butanone]
- activation of IGF-1R and its downstream signaling mediators Akt, mTOR, ERK (IGF-1R [3]; NHBE, SAEC, HBE/p53i, HB56B, BEAS-2B, increasing NNK time or concentration): increased
- IGF-1R activation in lung cancer cells (IGF-1R [3]; various lung cancer cells with different genotypes, NNK 10 μM): activated
- IGF2 secretion (IGF2 [4]; GFP-IGF2-overexpressing BEAS-2B, NNK treatment): increased
- specificity of increase in IGF-1R phosphorylation (IGF-1R vs IR) (IGF-1R [5]): specifically shown for IGF-1R, not for IR
- activation of IGF-1R and its downstream signaling IRS in lung tissue (IGF-1R [6]): increased
- intracellular Ca^2+ (intracellular Ca^2+): increased
- AGT promoter activation (angiotensinogen (AGT); NNK treatment): activated
- AGT expression and secretion (angiotensinogen (AGT); increase in NNK treatment time and concentration): increased
- AGT expression (angiotensinogen (AGT); lung epithelial cells treated with NNK for 120 days): increased
- IGF2 generation (IGF2 [7]): increased

Compound: O=C(O)CN(CCOCCOCCN(CC(=O)O)CC(=O)O)CC(=O)O [EGTA, ethylene glycol tetraacetic acid]
- NNK-increased IGF2 secretion (IGF2 [4]): inhibited
- NE-mediated IGF-1R activation (IGF-1R [8]): inhibited
- IGF-1R phosphorylation (IGF-1R [9]): inhibited
- NE-mediated IGF2 secretion (IGF2 [10]): inhibited

Compound: C[C@H](CCC(=O)O)C[C@H](C)C[C@H](C)C(=O)/C=C(\O)[C@H](C)C[C@H](C)C/C=C/[C@@H](C)[C@@H](O)[C@@H](C)[C@@H](O)C[C@@H]1CC[C@@](C)([C@H]2CC[C@@](C)([C@@H](C)O)O2)O1 [ionomycin]
- IGF-1R phosphorylation (IGF-1R [9]): increased

Compound: C[C@H](CS)C(=O)N1CCC[C@H]1C(=O)O [captopril]
- NNK-induced promotion of cell viability (lung epithelial cells [11]): suppressed
- NNK-induced promotion of colony formation (lung epithelial cells [11]): suppressed
- NNK-induced promotion of foci formation (lung epithelial cells [11]): suppressed
- NNK-mediated IGF-1R activation (IGF-1R [3]): inhibited
- NNK-induced tumorigenesis (A/J mice): significantly suppressed

Compound: CCCCc1nc(Cl)c(CO)n1Cc1ccc(-c2ccccc2-c2nn[nH]n2)cc1 [losartan]
- NNK-induced promotion of cell viability (lung epithelial cells [11]): suppressed
- NNK-induced promotion of colony formation (lung epithelial cells [11]): suppressed
- NNK-induced promotion of foci formation (lung epithelial cells [11]): suppressed
- NNK-mediated IGF-1R activation (IGF-1R [3]): inhibited
- NNK-induced tumorigenesis (A/J mice): significantly suppressed

Compound: C[C@]12CCC(=O)C=C1CC[C@@H]1[C@@H]2[C@@H](O)C[C@@]2(C)[C@H]1CC[C@]2(O)C(=O)CO [cortisol]
- transformation of lung epithelial cells (viability, colony formation, foci formation) (lung epithelial cells [2]): not by cortisol

Compound: CC(=O)OCOC(=O)CN(CC(=O)OCOC(C)=O)c1ccccc1OCCOc1ccccc1N(CC(=O)OCOC(C)=O)CC(=O)OCOC(C)=O [BAPTA-AM, 1,2-bis(2-aminophenoxy)ethane-N,N,N′,N′-tetraacetic acid tetrakis(acetoxymethyl ester)]
- NNK-increased IGF2 secretion (IGF2 [4]; GFP-IGF2-overexpressing BEAS-2B, with NNK): inhibited
- NE-mediated IGF-1R activation (IGF-1R [8]): inhibited
- IGF-1R phosphorylation (IGF-1R [9]): inhibited
- NE-mediated IGF2 secretion (IGF2 [10]): inhibited

Compound: C/C=C(/C)C(=O)O[C@H]1C(C)=C2[C@H]([C@@H]1OC(=O)CCCCCCC)[C@@](C)(OC(C)=O)C[C@H](OC(=O)CCC)[C@@]1(O)[C@H]2OC(=O)[C@@]1(C)O [thapsigargin]
- IGF-1R phosphorylation (IGF-1R [9]): increased

Compound: COC(=O)C1=C(C)NC(C)=C(C(=O)OC)C1c1ccccc1[N+](=O)[O-] [nifedipine]
- NE-mediated IGF-1R activation (IGF-1R [8]): inhibited
- NE-mediated IGF2 secretion (IGF2 [10]): inhibited

Source: US11123335B2, “Method for preventing lung diseases in smokers and non-smokers using antihypertensive drug” (SEOUL NATIONAL UNIVERSITY R & DB FOUNDATION, priority 2015, dated 2021)
